Experimental data: US10370380B2, “Octahydropyrrolo[3,4-c]pyrrole derivatives and uses thereof” (Sunshine Lake Pharma Co., Ltd., priority 2015, dated 2019)
Like-named read-outs stand apart in the source and are kept apart here. One block for each compound: values may come before it.

Columns and labels:
[1] = target: T1, humanized OX1 receptor (Homo sapiens, UniProt O43613); test: Antagonistic effect on humanized OX1 receptor, calcium flux by fluorescence detection in CHO cells; assay type: cell-based; details: CHO cells, calcium flux induced by 3 nM orexin A; read-out: OX1 IC50
T1 construct: expressed in transfected cells; host or cells: CHO (Chinese hamster ovary) cells
T1 sequence (O43613 1-425): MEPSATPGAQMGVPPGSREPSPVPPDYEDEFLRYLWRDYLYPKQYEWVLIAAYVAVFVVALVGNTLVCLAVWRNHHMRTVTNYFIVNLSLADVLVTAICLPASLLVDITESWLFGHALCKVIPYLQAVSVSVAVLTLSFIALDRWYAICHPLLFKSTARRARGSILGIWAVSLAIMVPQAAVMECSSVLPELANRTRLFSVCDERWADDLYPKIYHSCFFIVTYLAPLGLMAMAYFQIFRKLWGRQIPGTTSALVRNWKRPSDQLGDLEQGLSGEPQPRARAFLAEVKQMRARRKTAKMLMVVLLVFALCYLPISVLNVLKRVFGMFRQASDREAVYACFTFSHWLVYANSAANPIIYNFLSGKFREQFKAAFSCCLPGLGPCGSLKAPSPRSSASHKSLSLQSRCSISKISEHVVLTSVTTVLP
Experimental: The capability of the compounds provided herein to antagonize humanized OX1 receptor expressed in Chinese hamster ovary (CHO) cells was evaluated by the influence of the compounds disclosed herein on calcium flux in cells induced by agonist detected by a method of fluorescence detection. The cells were suspended in DMEM culture medium (invitrogen), and then added to a microplate with an average density of 2×10^4 cells/well. The Hank's balanced salt solution (pH 7.4) containing fluorescent probes (Fluo4 NW, Invitrogen), probenecid (invitrogen), 20 mM hydroxyethyl piperazine acetic sulfuric acid (invitrogen) was added to the above microplate, and then incubated together with the cells at 37° C. for 60 min, further incubated at 22° C. for 15 min. The microplate was placed in a microplate reader (CellLux, PerkinElmer), and to which was added the test compound or reference antagonist or Hank's balanced salt solution, 5 min later, 3 nM of orexin A or Hank's balanced salt solution (as a blank contrast) was added. […] The experimental results were expressed as an inhibition percentage relative to a control group (the group with 3 nM of orexin A).
The standard reference antagonist is SB334867, and IC50 values were calculated by the dose-effect curve obtained from a series of concentrations of the experimental test.

[2] = target: T2, humanized OX2 receptor (Homo sapiens, UniProt O43614); test: Antagonistic effect on humanized OX2 receptor, calcium flux by fluorescence detection in HEK-293 cells; assay type: cell-based
T2 construct: expressed in transfected cells; host or cells: HEK-293 cells
T2 sequence (O43614 1-444): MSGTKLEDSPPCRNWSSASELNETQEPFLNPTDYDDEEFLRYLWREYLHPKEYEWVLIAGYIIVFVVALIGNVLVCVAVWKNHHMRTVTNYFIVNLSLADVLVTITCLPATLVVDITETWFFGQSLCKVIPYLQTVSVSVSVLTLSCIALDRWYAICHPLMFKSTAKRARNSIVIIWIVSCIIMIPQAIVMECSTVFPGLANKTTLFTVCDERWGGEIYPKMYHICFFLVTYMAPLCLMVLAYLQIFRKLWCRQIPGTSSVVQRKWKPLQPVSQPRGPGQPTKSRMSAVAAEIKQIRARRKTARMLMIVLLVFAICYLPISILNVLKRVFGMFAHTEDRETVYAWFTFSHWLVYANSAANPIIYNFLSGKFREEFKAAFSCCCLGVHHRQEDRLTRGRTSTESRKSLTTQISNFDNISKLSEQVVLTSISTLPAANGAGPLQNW
Experimental: The capability of the compounds provided herein to antagonize humanized OX2 receptors expressed in HEK-293 cells was evaluated by the influence of the compounds disclosed herein on calcium flux in cells induced by agonist detected by a method of fluorescence detection. The cells were suspended in DMEM culture medium (invitrogen), and then added to a microplate with an average density of 3×10^4 cells/well. The Hank's balanced salt solution (pH 7.4) containing fluorescent probes (Fluo4 NW, Invitrogen), probenecid (invitrogen), 20 mM […] (invitrogen) was added to the above microplate, and then incubated together with the cells at 37° C. for 60 min, further incubated at 22° C. for 15 min. The microplate was placed in a microplate reader (CellLux, PerkinElmer), and to which was added the test compound or reference antagonist or Hank's balanced salt solution, 5 min later, 10 nM of orexin B or Hank's balanced salt solution (as a blank contrast) was added. […] The experimental results were expressed as an inhibition percentage relative to a control group (the group with 10 nM of orexin B).
The standard reference antagonist is JNJ10397049, and IC50 values were calculated by the dose-effect curve obtained from a series of concentrations of the experimental test.

[3] = Pharmacokinetic evaluation after intravenous or gavage administration to rats; assay type: in vivo, SD rats; details: SD, rat, in vivo
Experimental: (§1) The compounds disclosed herein were administered in form of a saline solution containing 5% DMSO, 5% Kolliphor HS 15, 2% (2% HCl) and 88% Saline, or a solution containing 10% DMSO, 10% Kolliphor HS 15 and 80% physiological saline to the subject animals. For intravenous administration, the animals were administered with a dose of 1 mg/kg or 2 mg/kg, and vein blood samples (0.3 mL) were collected at the time points of 0.083, 0.25, 0.5, 1.0, 2.0, 4.0, 6.0, 8.0 and 24 h after drug administration; plasma samples were collected by centrifugation of the vein blood samples at 3000 rpm or 4000 rpm for 10 minutes, and stored at −20° C. or −70° C. For gavage administration, the animals were administered with a dose of 2.5 mg/kg or 5 mg/kg, and vein blood samples (0.3 mL) were collected at the time points of 0.25, 0.5, 1.0, 2.0, 4.0, 6.0, 8.0 and 24 h after drug administration; plasma samples were collected by centrifugation at 3000 rpm or 4000 rpm for 10 minutes, and stored at −20° C. or −70° C. The positive control is suvorexant.
(§2) The above plasma samples were analyzed by the LC-MS/MS system.

[4] = Pharmacokinetic evaluation after intravenous or gavage administration to dogs; assay type: in vivo, Beagle dogs; details: beagle, dog, in vivo
Experimental: as §1, §2

[5] = HEK-293 cells, calcium flux induced by 10 nM orexin B, read-out: OX2 IC50

Compound: Cc1ccc(-n2nccn2)c(C(=O)N2CC3CN(c4nc5cc(F)ccc5o4)CC3C2)c1 (stereo not shown) [Example 4, (5-(5-fluorobenzo[d]oxazol-2-yl)hexahydropyrrolo[3,4-c]pyrrol-2(1H)-yl)(5-methyl-2-(2H-1,2,3-triazol-2-yl)phenyl)methanone]
- IC50 [1]: 0.611 µM
- IC50 [2]: 0.342 µM

- IC50 [1]: 0.589 µM
- IC50 [2, 5]: 0.201 µM
Compound: O=C(c1c(F)cccc1-n1nccn1)N1CC2CN(c3nc4cc(F)ccc4o3)CC2C1 (stereo not shown) [Example 6, (2-fluoro-6-(2H-1,2,3-triazol-2-yl)phenyl)(5-(5-fluorobenzo[d]oxazol-2-yl)hexahydropyrrolo[3,4-c]pyrrol-2(1H)-yl)methanone]

Compound: O=C(c1ccccc1-n1nccn1)N1CC2CN(c3nc4cc(F)ccc4o3)CC2C1 (stereo not shown) [Example 5, (2-(2H-1,2,3-triazol-2-yl)phenyl)(5-(5-fluorobenzo[d]oxazol-2-yl)hexahydropyrrolo[3,4-c]pyrrol-2(1H)-yl)methanone]
- IC50 [1]: 0.642 µM
- IC50 [2, 5]: 0.235 µM

Compound: Cc1ccc(-n2nccn2)c(C(=O)N2CC3CN(c4ncc5cc(F)ccc5n4)CC3C2)c1 (stereo not shown) [Example 12, (5-(6-fluoroquinazolin-2-yl)hexahydropyrrolo[3,4-c]pyrrol-2(1H)-yl)(5-methyl-2-(2H-1,2,3-triazol-2-yl)phenyl)methanone]
- AUC(0-inf) ([3]; iv, 1 mg/kg): 460 ng·h/mL
- AUC(0-t) ([3]; iv, 1 mg/kg): 460 ng·h/mL
- Cmax ([3]; iv, 1 mg/kg): 749 ng/mL
- MRT inf ([3]; iv, 1 mg/kg): 25.6 min
- Vd ([3]; iv, 1 mg/kg): 0.987 L/kg
- clearance ([3]; iv, 1 mg/kg): 40.1 mL/min/kg
- half-life ([3]; iv, 1 mg/kg): 24.3 min
- AUC(0-inf) ([3]; po, 2.5 mg/kg): 454 ng·h/mL
- AUC(0-t) ([3]; po, 2.5 mg/kg): 452 ng·h/mL
- Cmax ([3]; po, 2.5 mg/kg): 340 ng/mL
- F ([3]; po, 2.5 mg/kg): 39.3%
- MRT inf ([3]; po, 2.5 mg/kg): 76.8 min
- half-life ([3]; po, 2.5 mg/kg): 50.2 min
- IC50 [1]: 0.347 µM
- AUC(0-inf) ([4]; iv, 1 mg/kg): 1140 ng·h/mL
- AUC(0-t) ([4]; iv, 1 mg/kg): 1130 ng·h/mL
- Cmax ([4]; iv, 1 mg/kg): 1390 ng/mL
- MRT inf ([4]; iv, 1 mg/kg): 58.2 min
- Vd ([4]; iv, 1 mg/kg): 0.85 L/kg
- clearance ([4]; iv, 1 mg/kg): 14.7 mL/min/kg
- half-life ([4]; iv, 1 mg/kg): 42 min
- AUC(0-inf) ([4]; po, 5 mg/kg): 7880 ng·h/mL
- AUC(0-t) ([4]; po, 5 mg/kg): 7310 ng·h/mL
- Cmax ([4]; po, 5 mg/kg): 2310 ng/mL
- F ([4]; po, 5 mg/kg): 129.4%
- MRT inf ([4]; po, 5 mg/kg): 187 min
- half-life ([4]; po, 5 mg/kg): 119 min
- IC50 [2, 5]: 0.14 µM
